In US20200038513A1, “MODULATORS OF FAK PROTEOLYSIS AND ASSOCIATED METHODS OF USE” (ARVINAS OPERATIONS, INC., priority 2018, published 2020):

Experiments:
[1] = system: p-paxillin; assay: Fak downstream signaling, western blot in PC3 cells; type: cell-based, human; conditions: serum deprived PC3 cells, 24 h, 10 μM
Experimental: (§1) If not indicated otherwise, cells were seeded and grown to 80% confluency and were treated with compound or control for 24 hours. Subsequently, the growth media was removed and the cells lysed by the addition of lysis buffer (25 mM Tris, pH 7.4; 1% NP-40, 0.25% deoxycholate, 1 mM sodium vanadate, 10 mM sodium fluoride, 10 mM sodium pyrophosphate, 20 mM β-glycerophosphate and 1× complete EDTA-free protease inhibitor cocktail (Roche)). After 20 minutes the mixture was spun down at 16,000×g for 10 minutes at 4° C. to pellet insoluble materials. Protein concentration of supernatants were determined via BCA assay (Thermo Fisher) before addition of NuPAGE sample buffer containing 5% β-Me and boiling at 95° C. for 10 minutes. Equal amounts of protein were subjected to SDS-PAGE and subsequent electrophoretic transfer onto nitrocellulose membrane. Rabbit antibodies were purchased from Cell Signaling: Fak (3285), p-Fak (3283), p-Paxillin (2541), p-Akt (S473)(4060), GAPDH (2118), Androgen Receptor (5153), p-Src(Y527)(2105), p-S6RP (2215). Mouse antibodies were purchased from Cell Signaling: tubulin (3873), S6RP (2317). Secondary antibody ∝-rabbit (31460) or ∝-mouse (31444) was coupled to horseradish peroxidase and purchased from Thermo Fisher. Immunoblots were developed using enhanced chemiluminescence and visualized using a Bio-Rad Chemi-Doc MP Imaging System and quantitated with Image Lab v.5.2.1 software (Bio-Rad Laboratories). Data analysis and statistics was performed using Prism 7.0 (GraphPad).
(§2) Fak levels are undetectable at concentrations of 100 nM through 1 μM of exemplary compound 102, and slightly rebound at concentrations of 5 μM (10%) and 10 μM (27%) due to an observed hook effect. […] Paxillin, a downstream target of the Fak-Src complex, has been associated with cell migration. […] Akt is a kinase that is tied to the Fak signaling cascade via PI3K, but can be activated through other pathways as well. […] A maximum p-Akt suppression of 93% is observed at 1 μM of exemplary compound 102. […] A similar differential can be observed when exemplary compound 102 is compared to its non-degrading diastereomer exemplary compound 106 (FIGS. 9A-9F and 10A-10D). These differences are the result of the distinct MOA Fak degraders are able to provide compared to inhibitors.

[2] = system: p-Akt (S473); assay: as above; type: cell-based, human; conditions: serum deprived PC3 cells, 24 h, 10 μM
Experimental: as §1, §2

CNC(=O)c1ccc(Nc2ncc(C(F)(F)F)c(NCc3nccnc3N(C)S(C)(=O)=O)n2)cc1 [Defactinib, defactinib, reference compound]
maximum reduction of p-paxillin levels [1]: 62%
maximum reduction of p-Akt [2]: 88%
